From BindingDB's records for doi:10.1128/AAC.01184-06 (University of California, 2007)

Test: Protection against Bacillus anthracis lethal toxin-mediated cytotoxicity in mouse RAW264.7 cells assessed as change in viability after 24 hrs by WST1 dye reduction assay

SMILES	IC50 [µM]
CC(C)COC[C@H](CN(Cc1ccccc1)c1ccccc1)N1CCCC1	4.8
CN(C)CCCn1cc(C2=C(c3c[nH]c4ccccc34)C(=O)NC2=O)c2ccccc21 [2-[1-(3-dimethylaminopropyl)-indol-3-yl]-3-(indol-3-yl)maleimide]	1.5
CCCCCCCCCCCCC/C=C/[C@@H](O)[C@H](CO)N(C)C [(E)-(2S,3R)-2-Dimethylamino-octadec-4-ene-1,3-diol]	2.3
